In PMC11203676, “Synthesis, Molecular Electron Density Theory Study, Molecular Docking, and Pharmacological Evaluation of New Coumarin–Sulfonamide–Nitroindazolyl–Triazole Hybrids as Monoamine Oxidase Inhibitors” (International Journal of Molecular Sciences, 2024):

Legend:
[1] = target: T1, hAChE (human recombinant AChE) (Homo sapiens, UniProt P22303); experiment: biochemical
T1 construct: purchased Sigma Aldrich (Milan, Italy)
Procedure: (§1) Human recombinant AChE, BChE from human serum, and human MAOs from baculovirus-infected insect cells were purchased from Sigma Aldrich (Milan, Italy). […] All experiments were carried out in triplicate and results expressed as mean ± SEM.
(§2) AChE/BChE and MAO A/B inhibition were, respectively, determined with the spectrophotometric method of Ellman, and a fluorimetric method using kynuramine as MAO substrate, as previously described.

hMAO-A = target: T2, hMAO-A (Homo sapiens, UniProt P21397); experiment: biochemical; settings: for inhibition at 10 µM: read-out: hMAO-A % Inhibition
T2 construct: purchased Sigma Aldrich (Milan, Italy); host or cells: baculovirus-infected insect cells
T2 sequence (P21397 1-527): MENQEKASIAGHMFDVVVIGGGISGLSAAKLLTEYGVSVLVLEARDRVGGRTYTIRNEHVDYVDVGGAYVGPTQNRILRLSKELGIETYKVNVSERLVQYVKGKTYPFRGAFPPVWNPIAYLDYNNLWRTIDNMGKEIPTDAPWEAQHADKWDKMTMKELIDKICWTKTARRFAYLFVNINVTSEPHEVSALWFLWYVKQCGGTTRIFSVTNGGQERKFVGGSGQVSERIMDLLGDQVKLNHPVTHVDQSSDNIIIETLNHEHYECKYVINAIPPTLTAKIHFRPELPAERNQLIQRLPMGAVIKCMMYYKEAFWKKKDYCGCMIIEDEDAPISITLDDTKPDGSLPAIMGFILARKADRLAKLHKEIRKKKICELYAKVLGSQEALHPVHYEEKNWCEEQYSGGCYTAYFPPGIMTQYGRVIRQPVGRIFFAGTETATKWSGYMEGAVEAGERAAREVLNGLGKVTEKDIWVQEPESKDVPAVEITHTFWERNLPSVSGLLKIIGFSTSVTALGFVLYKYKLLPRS
Procedure: as §1, §2

[2] = target: T3, hBChE (BChE from human serum) (Homo sapiens, UniProt P06276); experiment: BChE inhibition, spectrophotometric method of Ellman; assay type: biochemical; settings: at 10 µM concentration; ni: no inhibition; mean ± SEM (n = 3)
T3 construct: BChE from human serum; purchased Sigma Aldrich (Milan, Italy); host or cells: human serum
T3 sequence (P06276 29-602): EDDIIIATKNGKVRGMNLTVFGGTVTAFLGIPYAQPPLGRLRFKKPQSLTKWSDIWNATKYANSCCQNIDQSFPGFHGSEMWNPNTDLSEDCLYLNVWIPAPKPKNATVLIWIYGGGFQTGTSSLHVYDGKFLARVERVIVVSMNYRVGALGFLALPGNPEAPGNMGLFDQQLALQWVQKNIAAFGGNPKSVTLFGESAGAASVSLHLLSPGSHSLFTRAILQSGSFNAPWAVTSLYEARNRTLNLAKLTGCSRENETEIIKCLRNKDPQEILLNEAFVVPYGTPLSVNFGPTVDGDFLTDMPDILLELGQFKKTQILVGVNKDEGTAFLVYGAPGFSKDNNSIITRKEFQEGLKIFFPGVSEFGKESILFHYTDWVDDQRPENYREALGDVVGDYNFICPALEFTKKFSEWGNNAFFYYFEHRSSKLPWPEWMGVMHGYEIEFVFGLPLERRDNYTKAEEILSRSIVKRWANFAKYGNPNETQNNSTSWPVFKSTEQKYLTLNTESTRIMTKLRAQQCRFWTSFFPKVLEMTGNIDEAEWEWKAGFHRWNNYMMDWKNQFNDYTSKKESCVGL
Procedure: as §1, §2

hMAO-B = target: T4, hMAO-B (Homo sapiens, UniProt P27338); experiment: MAO-B inhibition, fluorimetric method with kynuramine as substrate; assay type: biochemical; settings: read-out: hMAO-B % Inhibition
T4 construct: purchased Sigma Aldrich (Milan, Italy); host or cells: baculovirus-infected insect cells
T4 sequence (P27338 1-520): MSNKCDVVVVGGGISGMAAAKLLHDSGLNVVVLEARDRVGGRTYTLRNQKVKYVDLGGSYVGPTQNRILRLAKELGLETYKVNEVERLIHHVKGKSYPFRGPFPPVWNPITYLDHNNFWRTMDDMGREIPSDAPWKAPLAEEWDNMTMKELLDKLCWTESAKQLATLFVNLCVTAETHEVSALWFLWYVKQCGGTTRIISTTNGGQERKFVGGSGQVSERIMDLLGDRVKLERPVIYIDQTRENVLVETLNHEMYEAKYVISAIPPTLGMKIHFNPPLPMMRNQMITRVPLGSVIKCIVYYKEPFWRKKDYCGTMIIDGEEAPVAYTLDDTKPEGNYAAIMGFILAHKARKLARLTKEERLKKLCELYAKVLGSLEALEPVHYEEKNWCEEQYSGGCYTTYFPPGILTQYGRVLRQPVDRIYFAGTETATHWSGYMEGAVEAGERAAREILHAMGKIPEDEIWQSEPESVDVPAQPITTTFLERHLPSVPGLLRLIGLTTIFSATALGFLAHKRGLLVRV
Procedure: as §1, §2

T1 sequence (P22303 32-614): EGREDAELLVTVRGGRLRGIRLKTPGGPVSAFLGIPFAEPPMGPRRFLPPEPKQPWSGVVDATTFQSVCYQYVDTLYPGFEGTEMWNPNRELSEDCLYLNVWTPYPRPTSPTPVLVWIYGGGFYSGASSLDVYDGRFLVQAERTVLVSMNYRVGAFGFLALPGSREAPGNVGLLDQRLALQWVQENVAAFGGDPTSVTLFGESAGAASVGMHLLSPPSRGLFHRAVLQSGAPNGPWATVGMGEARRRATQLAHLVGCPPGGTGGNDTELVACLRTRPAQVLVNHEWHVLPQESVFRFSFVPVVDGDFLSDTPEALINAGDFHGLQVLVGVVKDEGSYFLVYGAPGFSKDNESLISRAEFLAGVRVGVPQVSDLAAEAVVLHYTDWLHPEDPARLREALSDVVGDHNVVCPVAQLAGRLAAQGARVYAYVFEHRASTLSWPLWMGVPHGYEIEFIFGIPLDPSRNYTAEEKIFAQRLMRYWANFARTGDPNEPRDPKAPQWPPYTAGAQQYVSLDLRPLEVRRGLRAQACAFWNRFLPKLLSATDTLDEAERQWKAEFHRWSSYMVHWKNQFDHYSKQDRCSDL

Row | SMILES | inhibition at 10 µM [1] [%] | IC50 (hMAO-A) [µM] | inhibition at 10 µM (hMAO-A) [%] | inhibition at 10 µM [2] [%] | inhibition at 10 µM (hMAO-B) [%] | hBChE % Inhibition [2] | melting point [°C]
1 | Cc1ccc(S(=O)(=O)N(Cc2cn(CCn3ncc4ccc([N+](=O)[O-])cc43)nn2)c2ccc3oc(=O)ccc3c2)cc1 [14a, 4-Methyl-N-((1-(2-(6-nitro-1H-indazol-1-yl)ethyl)-1H-1,2,3-triazol-4-yl)methyl)-N-(2-oxo-2H-chromen-6-yl)benzenesulfonamide] | 51 ± 2 | 14.8 ± 1.6 | 76 ± 5 | 48 ± 4 | 39 ± 3 |  | 
2 | C#CCN(c1ccc2oc(=O)ccc2c1)S(=O)(=O)c1ccc(C)cc1 [13a, 4-Methyl-N-(2-oxo-2H-chromen-6-yl)-N-(prop-2-yn-1-yl)benzenesulfonamide] | 60 ± 3 |  | 13 ± 5 |  | 12 ± 1 | ni | 
3 | CN(c1ccc2oc(=O)ccc2c1)S(=O)(=O)c1ccc(Cl)cc1 |  |  |  |  |  |  | 244 to 246
4 | O=c1ccc2cc(NS(=O)(=O)c3ccc(Cl)cc3)ccc2o1 [11c, 4-Chloro-N-(2-oxo-2H-chromen-6-yl)benzenesulfonamide] | 55 ± 3 |  | 9 ± 4 |  | 26 ± 4 | ni | 
5 | C#CCN(c1ccc2oc(=O)ccc2c1)S(=O)(=O)c1ccc(Cl)cc1 [13c, 4-Chloro-N-(2-oxo-2H-chromen-6-yl)-N-(prop-2-yn-1-yl)benzenesulfonamide] | 48 ± 2 |  | 37 ± 5 |  | 20 ± 2 | ni | 
6 | O=c1ccc2cc(N(Cc3cn(CCn4ncc5ccc([N+](=O)[O-])cc54)nn3)S(=O)(=O)c3ccc(Cl)cc3)ccc2o1 [14c, 4-Chloro-N-((1-(2-(6-nitro-1H-indazol-1-yl)ethyl)-1H-1,2,3-triazol-4-yl)methyl)-N-(2-oxo-2H-chromen-6-yl)benzenesulfonamide] | 42 ± 1 | 28 ± 2.2 | 67 ± 5 |  | 45 ± 1 | ni | 
7 | COc1ccc(S(=O)(=O)Nc2ccc3oc(=O)ccc3c2)cc1 [11b, 4-Methoxy-N-(2-oxo-2H-chromen-6-yl)benzenesulfonamide] | 57 ± 4 |  | 26 ± 3 |  | 34 ± 3 | ni | 
8 | COc1ccc(S(=O)(=O)N(Cc2cn(CCn3ncc4ccc([N+](=O)[O-])cc43)nn2)c2ccc3oc(=O)ccc3c2)cc1 [14b, 4-Methoxy-N-((1-(2-(6-nitro-1H-indazol-1-yl)ethyl)-1H-1,2,3-triazol-4-yl)methyl)-N-(2-oxo-2H-chromen-6-yl)benzenesulfonamide] | 44 ± 3 | 16.9 ± 1.9 | 81 ± 5 | 31 ± 5 | 23 ± 4 |  | 
9 | C#CCN(c1ccc2oc(=O)ccc2c1)S(=O)(=O)c1ccc(OC)cc1 [13b, 4-Methoxy-N-(2-oxo-2H-chromen-6-yl)-N-(prop-2-yn-1-yl)benzenesulfonamide] | 49 ± 3 |  | 22 ± 7 |  | 28 ± 2 | ni | 
10 | Cc1ccc(S(=O)(=O)Nc2ccc3oc(=O)ccc3c2)cc1 [11a, 4-Methyl-N-(2-oxo-2H-chromen-6-yl)benzenesulfonamide] | 55 ± 3 | 2.46 ± 0.67 | 76 ± 3 |  | 45 ± 2 | ni | 
